# According to patent US20110092448A1, “Peptide Conjugate for Oral Delivery of Hydrophilic Peptide Analgesics” (METABOLIC PHARMACEUTICALS LIMITED, priority 2005, published 2011):
# Like-named read-outs stand apart in the source and are kept apart here.
# Tests used:
# [1] = Blood (serum) calcium levels in normal mice after EP-PTH; type: in vivo, mouse; conditions: mouse, serum; CD-1 mice, oral vs subcutaneous; read-out: oral bioavailability based on pharmacodynamic measurements
# Method: (§1) EP-PTH was administered orally to normal mice and the anabolic action on blood calcium levels were measured. More specifically, after an initial blood sampling at time zero, groups of normal CD-1 mice were administered EP-PTH via either oral gavage (40 μg/kg, 200 μg/kg or 400 μg/kg) or subcutaneous injection (40 μg/kg) as described in Example 3. One hour after the administration of the EP-PTH and a second blood sample was taken. The serum calcium levels of blood samples were then assessed by an enzymatic method.
# (§2) The person skilled in the art will understand that the method of estimating oral availability by identifying an oral dose response curve in a pharmacodynamic animal experiment and comparing with the parenterally administered dose response curve may be used in assessing the application of the invention to other parent peptides.
# [2] = system: blood calcium levels in normal CD-1 mice; assay: as above; type: in vivo, mouse; conditions: oral gavage 40, 200 or 400 μg/kg, 1 h
# Method: as §1, §2
# [3] = cited from earlier work
# [4] = system: STZ diabetic Sprague-Dawley rats with neuropathic pain; conditions: rat, in vivo, po
molecule,measurement,setting,value
CC[C@H](C)[C@H](NC(=O)[C@H](CCC(=O)O)NC(=O)[C@H](CO)NC(=O)[C@@H](NC(=O)[C@H](CO)NC(=O)[C@H](CCC(N)=O)NC(=O)[C@@H](NC(=O)[C@@H](NC(=O)[C@H](CCCNC(=N)N)NC(=O)[C@@H](N)CC(C)C)[C@@H](C)CC)C(C)C)C(C)C)C(=O)N[C@@H](CCC(N)=O)C(=O)N[C@@H](CC(C)C)C(=O)N[C@@H](CCSC)C(=O)N[C@@H](Cc1c[nH]cn1)C(=O)N[C@@H](CC(N)=O)C(=O)N[C@@H](CC(C)C)C(=O)NCC(=O)N[C@@H](CCCCN)C(=O)N[C@@H](Cc1c[nH]cn1)C(=O)N[C@@H](CC(C)C)C(=O)N[C@@H](CC(N)=O)C(=O)N[C@@H](CO)C(=O)N[C@@H](CCSC)C(=O)N[C@@H](CCC(=O)O)C(=O)N[C@@H](CCCNC(=N)N)C(=O)N[C@H](C(=O)N[C@@H](CCC(=O)O)C(=O)N[C@@H](Cc1c[nH]c2ccccc12)C(=O)N[C@@H](CC(C)C)C(=O)N[C@@H](CCCNC(=N)N)C(=O)N[C@@H](CCCCN)C(=O)N[C@@H](CCCCN)C(=O)N[C@@H](CC(C)C)C(=O)N[C@@H](CCC(N)=O)C(=O)N[C@@H](CC(=O)O)C(=O)N[C@H](C(=O)N[C@@H](Cc1c[nH]cn1)C(=O)N[C@@H](CC(N)=O)C(=O)N[C@@H](Cc1ccccc1)C(=O)O)C(C)C)C(C)C [EP-PTH],bioavailability,[1],~10%
same,effect on blood calcium levels compared to vehicle control,[2],dose-dependent effect
"AOD9604: AOD peptide derived from the C-terminal sequence of human growth hormone, earlier applications (YLRIVQCRSVEGSCGF)",oral bioavailability,"[3]; earlier applications PCT/AU98/00724, PCT/AU01/00354, PCT/AU00/01362",substantially orally bioavailable
Tyr-Leu-Arg-Ile-Val-Gly-Cys-Cys-Ser-Asp-Pro-Arg-Cys-Asn-Tyr-Asp-His-Pro-Glu-Ile-Cys-NH2 [ACV3.2],oral availability,[4],substantial oral availability
same,analgesic effect vs vehicle group,[4]; 1 mg/kg,significant difference
parathyroid hormone: hormone known to regulate levels of blood calcium; parent peptide of EP-PTH,oral bioavailability,[3]; reported,about 0.3%
